{"source": "patent US20120220455A1", "about": "“Azolylmethyloxiranes, Their Use for Controlling Phytopathogenic Fungi and Compositions Comprising Them” (BASF SE, priority 2006, published 2012)", "tested_on": "Alternaria solani", "experiment": "Efficacy against early blight of tomato caused by Alternaria solani (Alteso P1), greenhouse", "assay_type": "in vivo", "conditions": "Comparative Example 1, potted tomato plants, visual rating after 5 days", "description": "The active compounds were prepared separately or jointly as a stock solution comprising 25 mg of active compound which was made up to 10 ml using a mixture of acetone and/or DMSO and the emulsifier Wettol EM 31 (wetting agent having emulsifying and dispersing action based on ethoxylated alkylphenols) in a volume ratio of solvent/emulsifier of 99:1. The mixture was then made up to 100 ml with water. This stock solution was diluted with the solvent/emulsifier/water mixture described to give the concentration of active compounds stated below. Leaves of potted tomato plants were sprayed to runoff point with an aqueous suspension having the active compound concentration stated below. The next day, the leaves were inoculated with an aqueous spore suspension of Alternaria solani in a 2% biomalt solution. The plants were then placed in a water vapor-saturated chamber at temperatures between 20 and 22° C. After 5 days, the disease on the untreated but infected control plants had developed to such an extent that the infection could be determined visually in %. […]", "data": [{"smiles": "COc1ccc([C@@]2(Cn3cncn3)O[C@@H]2c2ccccc2Cl)c(F)c1", "note": "(racemic) [Compound 14.10]", "values": [{"measurement": "Infection in % at 63 ppm for Alteso P1", "result": 5, "unit": "%"}]}, {"smiles": "COc1ccc(C2(Cn3cncn3)OC2c2ccccc2Cl)cc1", "note": "(centres unmarked) [As described in EP-A 0 196 038]", "values": [{"measurement": "Infection in % at 63 ppm for Alteso P1", "result": 90, "unit": "%"}]}]}
